Laboratory results reported in patent publication US6458815B2, “Sulfonamide compounds and methods of treating atherosclerosis and restenosis” (Warner-Lambert Company, priority 1998, dated 2002).

How the values were obtained:
[1] = target: apolipoprotein(a), [apo(a)], apolipoproteinB-100, [apoB-100], coupling reaction that generates Lp(a) (Homo sapiens, UniProt P04114+P08519); test: LPABC screen: lipoprotein(a) biochemical coupling assay, Lp(a) content by ELISA; conditions: recombinant apo(a) 17-kringle (293 cell conditioned media) + HepG2 conditioned media, 67 minutes at 37° C., 0.3 to 50 μM compound
Protocol: The lipoprotein(a), [Lp(a)], biochemical coupling assay (LPABC) is used to characterize inhibitors of the apolipoprotein(a), [apo(a)], apolipoproteinB-100, [apoB-100], coupling reaction that generates Lp(a). Conditioned media from 293 cells (ATCC CRL-1573), permanently transfected with an apo(a) 17-kringle cDNA expression construct (pcDNA-AMP, In Vitrogen, Carlsbad, Calif.) using standard molecular biology techniques, was used as a source of recombinant apo(a) is diluted 1:3 with phosphate buffered saline (PBS) and 90 μL is pipetted into each well of a 96-well plate and placed into 37° C. incubator for 10 minutes. Twenty microliters of a 0.3 to 50 μM solution of a compound of the present invention in PBS is added to the warmed plate. Ninety microliters of HepG2 (ATCC HB-8065) cell conditioned media diluted 1:3 with PBS is added to the apo(a)/compound mixture and mixed by pipetting up and down 5 times. The reaction is incubated for 67 minutes in a 37° C. incubator. A 100 μL aliquot of the reaction is removed and assayed for its Lp(a) content by an enzyme linked immunosorbent assay (ELISA).

[2] = test system: Lp(a) production in HepG2^K17 cells; test: LPA3 screen: inhibition of Lp(a) production in transfected HepG2 cells, Lp(a) in media by ELISA; type: cell-based; conditions: Homo sapiens, 8 hours incubation, 0.3 to 50 μM compound, Lp(a) normalized for total protein
Protocol: The LPA3 screen is used to identify compounds that inhibit Lp(a) production. This screen employs permanently transfected HepG2 cells (HepG2^K17) that are generated using an apo(a) 17-kringle cDNA expression construct (pcDNA-AMP, In Vitrogen, Carlsbad, Calif.) in accordance with methods that are well-known in molecular biology.
HepG2^K17 cells are seeded in 96-well plates at a density of 75,000 cells per well in 0.25 mL of Dulbecco's Modified Eagle Media (DMEM) containing 10% fetal bovine serum (FBS). Seeded plates are incubated overnight in a 37° C., 5% CO2/95% O2 incubator. The media is removed, replaced with (1) fresh media, or (2) fresh media plus 0.3 to 50 μM of a compound of the present invention in 20 μL of PBS, and the plates returned to the incubator for 8 hours. After the additional 8 hours of incubation, Lp(a) is assayed in the media by ELISA. Cells are digested with 0.5N NaOH overnight and assayed for total protein. Lp(a) values are normalized for total protein content.

| Compound | IC50 [1] [µM] | melting point [°C] | IC50 [2] [µM] |
| --- | --- | --- | --- |
| CC(C)(C)c1cc(CN(c2cccnc2)S(=O)(=O)c2ccc(-c3ccccn3)s2)cc(C(C)(C)C)c1O [Example 1, 5-Pyridin-2-yl-thiophene-2-sulfonic Acid (3,5-di-tert-butyl-4-hydroxy-benzyl)-pyridin-3-yl-amide] | 1.66 |  |  |
| CCOC(=O)C(c1cc(C(C)(C)C)c(O)c(C(C)(C)C)c1)N(CC1CCCCC1)S(C)(=O)=O (stereo not drawn) [Example 2, (Cyclohexylmethyl-methanesulfonyl-amino)-(3,5-Di-tert-butyl-4-hydroxy-phenyl)-acetic Acid Ethyl Ester] | 1.92 |  | 27.2 |
| Cc1ccc(S(=O)(=O)N(Cc2cc(C(C)(C)C)c(O)c(C(C)(C)C)c2)c2cccnc2)cc1 [Example 3, N-(3,5-Di-tert-butyl-4-hydroxy-benzyl)-4-methyl-N-pyridin-3-yl-benzenesulfonamide] | 3.94 | 121 to 123 | 6.9 |
| CC(=O)Nc1ccc(S(=O)(=O)N(Cc2cc(C(C)(C)C)c(O)c(C(C)(C)C)c2)c2cccnc2)cc1 [Example 8, N-(3,5-Di-tert-butyl-4-hydroxy-benzyl)-4-acetamido-N-pyridin-3-yl-benzenesulfonamide] | 3.5 | 167 to 169 | 12.5 |
| COc1ccc(S(=O)(=O)N(Cc2cc(C(C)(C)C)c(O)c(C(C)(C)C)c2)c2cccnc2)cc1 [Example 9, N-(3,5-Di-tert-butyl-4-hydroxy-benzyl)-4-methoxy-N-pyridin-3-yl-benzene Sulfonamide] | 3.7 | 142 to 143 | 5.8 |
| CC(C)(C)c1cc(CN(c2cccnc2)S(=O)(=O)c2cccc([N+](=O)[O-])c2)cc(C(C)(C)C)c1O [Example 10, N-(3,5-Di-tert-butyl-4-hydroxy-benzyl)-3-nitro-N-pyridin-3-yl-benzenesulfonamide] | 4 | 99 to 107 | 7.4 |
| CC(C)(C)c1cc(CN(c2cccnc2)S(=O)(=O)c2ccccc2)cc(C(C)(C)C)c1O [Example 11, N-(3,5-Di-tert-butyl-4-hydroxy-benzyl)-3-N-pyridin-3-yl-benzenesulfonamide] | 4.12 | 143 to 145 | 16.2 |
| CC(C)(C)c1ccc(S(=O)(=O)N(Cc2cc(C(C)(C)C)c(O)c(C(C)(C)C)c2)c2cccnc2)cc1 [Example 13, N-(3,5-Di-tert-butyl-4-hydroxy-benzyl)-4-tert-butyl-N-pyridin-3-yl-benzenesulfonamide] | 11.8 | 155 to 156 | 23.6 |
| Cc1ccc(S(=O)(=O)N(Cc2cc(C(C)(C)C)c(O)c(C(C)(C)C)c2)c2ccc(Cl)nc2)cc1 [Example 16, N-(6-Chloro-pyridin-3-yl)-N-(3,5-di-tert-butyl-4-hydroxybenzyl)-4-methyl-benzenesulfonamide] | 2.1 | 152 to 153 |  |
| CC(C)(C)c1cc(CN(c2cccnc2)S(=O)(=O)c2ccc3ccccc3c2)cc(C(C)(C)C)c1O [Example 17, N-(3,5-di-tert-butyl-4-hydroxybenzyl)-2-naphthalene-N-pyridin-3-yl-sulfonamide] | 7.1 | 160 to 171 |  |

Continued by falling IC50 [1], values first:

| IC50 [1] [µM] | melting point [°C] | Compound | IC50 [2] [µM] |
| --- | --- | --- | --- |
| 5.58 | 133 to 134 | CC(C)(C)c1cc(CN(c2cccnc2)S(C)(=O)=O)cc(C(C)(C)C)c1O [Example 12, N-(3,5-Di-tert-butyl-4-hydroxy-benzyl)-N-pyridin-3-yl-methanesulfonamide] | 41.2 |
| 3.5 | 118 to 120 | CC(C)(C)c1cc(CN(c2cccnc2)S(=O)(=O)c2cccs2)cc(C(C)(C)C)c1O [Example 7, Thiophene-2-sulfonic Acid (3,5-di-tert-butyl-4-hydroxy-benzyl)-pyridin-3-yl-amide] | 8.9 |
| 3.15 |  | COc1ccc(N(Cc2cc(C(C)(C)C)c(O)c(C(C)(C)C)c2)S(=O)(=O)c2cccs2)cn1 [Example 6, Thiophene-2-sulfonic Acid (3,5-di-tert-butyl-4-hydroxy-benzyl)-6-methoxy-pyridin-3-yl-amide] |  |
| 2.76 | 129 to 131 | CC(C)(C)c1cc(CN(c2cccnc2)S(=O)(=O)c2cccc(Br)c2)cc(C(C)(C)C)c1O [Example 19, N-(3,5-di-tert-butyl-4-hydroxybenzyl)-3-bromo-N-pyridin-3-yl-benzenesulfonamide] |  |
| 2.6 |  | CC(C)(C)c1cc(CN(c2cccnc2)S(=O)(=O)c2ccc(F)cc2)cc(C(C)(C)C)c1O [Example 4, N-(3,5-Di-tert-butyl-4-hydroxy-benzyl)-4-fluoro-N-pyridin-3-yl-benzenesulfonamide] | 7.5 |
| 2.6 | 159 to 160 | CC(C)(C)c1cc(CN(c2cccnc2)S(=O)(=O)c2ccc([N+](=O)[O-])cc2)cc(C(C)(C)C)c1O [Example 5, N-(3,5-Di-tert-butyl-4-hydroxy-benzyl)-4-nitro-N-pyridin-3-yl-benzenesulfonamide] | 9.4 |
| 2.43 | 105 to 107 | CC(C)(C)c1cc(CN(c2cccnc2)S(=O)(=O)c2ccccc2Br)cc(C(C)(C)C)c1O [Example 15, N-(3,5-di-tert-butyl-4-hydroxybenzyl)-2-bromo-N-pyridin-3-yl-benzenesulfonamide] |  |
| 2.42 | 127 to 129 | COc1ccc(N(Cc2cc(C(C)(C)C)c(O)c(C(C)(C)C)c2)S(=O)(=O)c2ccc(C)cc2)cn1 [Example 18, N-(3,5-di-tert-butyl-4-hydroxy-benzyl)-N-(6-methoxy-pyridin-3-yl)-4methyl-benzenesulfonamide] |  |
| 2.1 | 117 to 119 | Cc1ccc(S(=O)(=O)N(Cc2cc(C(C)(C)C)c(O)c(C(C)(C)C)c2)c2cccnc2Cl)cc1 [Example 14, N-(2-Chloro-pyridin-3-yl)-N-(3,5-di-tert-butyl-4-hydroxy-benzyl)-4-methyl-benzenesulfonamide] |  |
